Measured values from US6274627A, “Conjugates of dithiocarbamate disulfides with pharmacologically active agents and uses therefor” (Medinox, Inc., priority 1999, dated 2001).
“Also recorded” adds a separate entry of the source.

Experiments:
esterase = test: Enzymatic hydrolysis of PDD-NSAIDs by esterase; format: in vitro ADME; conditions: for time within which the compound was decomposed into two compounds: esterase, PBS buffer, as described for compound 12
Procedure: The resulting solution was put in a water bath (37° C.) for 30 min and then at room temperature overnight.

cancer patients = cancer patients receiving adriamycin chemotherapy; cited from earlier work
[1] = iron-ICRF-187 complex, Fenton reaction; cited from earlier work
[2] = tested on: Lewis male rats (M. tuberculosis adjuvant-induced arthritis); test: Chronic inflammation: rat adjuvant arthritis model; format: in vivo; conditions: for reduction of swelling compared to control by day 15: oral high doses: naproxen 10 mg/kg, days 5-8 and 11-14
Procedure: Thus, paw volume increases (measured with a Plethysmometer) are reported as a function of time, and were measured in the injected feet of Lewis male rats in which arthritis was induced by intradermel injection of adjuvant into the footpad.
NSAIDs are useful in both chronic and acute inflammatory conditions. Efficacy in chronic inflammation can be estimated using the rat adjuvant arthritis model (Blackham et al. supra). In this model Lewis male rats (175-250 g) were injected intradermally in the footpad with M. tuberculosis powder suspended in mineral oil at 5 mg/ml. Progressive swelling of the uninjected paw and ankle joint between days 11 and 15 was measured by plethysmometry.

[3] = tested on: male Sprague-Dawley rats (stomach, gastric lesions); test: Gastric erosions in the rat gastropathy model; format: in vivo; conditions: oral; for length of the lesions (most of the lesions): corpus of the stomach; for number of gastric lesions, dose dependence: naproxen 15 and 30 mg/kg, PDD-Naproxen 27 & 54 mg/kg (equimolar)
[4] = Plasma pharmacokinetics of naproxen following oral administration of PDD-Naproxen or naproxen in rats
[5] = tested on: male Sprague-Dawley rats (carrageenan-injected paw); test: Acute inflammation: rat carrageenan-induced hindlimb edema model; format: in vivo
Procedure: Efficacy of NSAIDs in acute inflammation can be estimated by using intraplantar injection of carrageenan in the rat. Male Sprague-Dawley rats (200-250 g) were injected intradermally in the footpad with 50 μl of a 1% carrageenan solution in PBS. Swelling of the injected paw was measured at 2, 3, 5 & 7 hours using a plethysmometer.

[6] = tested on: gastrointestinal toxicity; conditions: in vivo; cited from earlier work
COX-2 = conditions: cited from earlier work
nuclear factor kappa B = conditions: intact cells; cited from earlier work
[7] = PDD-Naproxen (NOX-319) 18 mg/kg

**Q.** For `CC(C)Cc1ccc(C(C)C(=O)OCCCOC(=O)[C@@H]2CCCN2C(=S)SSC(=S)N2CCC[C@H]2C(=O)OCCCOC(=O)C(C)c2ccc(CC(C)C)cc2)cc1` (stereo partly shown) [Compound 16], which “time within which the compound was decomposed into two compounds” value (esterase) is on record?
**A.** Its value is no more than 5 h.

**Q.** With `CC(C(=O)OCCCOC(=O)[C@@H]1CCCN1C(=S)SSC(=S)N1CCC[C@H]1C(=O)OCCCOC(=O)C(C)c1cccc(C(=O)c2ccccc2)c1)c1cccc(C(=O)c2ccccc2)c1` (stereo partly shown) [Compound 20] as the molecule, how does the “time within which the compound was decomposed into two compounds” value (esterase) read?
**A.** The value was no more than 5 h.

**Q.** Which “time within which the compound was decomposed into two compounds” value (esterase) does the source give for `COc1ccc2c(c1)c(CC(=O)OCCCOC(=O)[C@@H]1CCCN1C(=S)SSC(=S)N1CCC[C@H]1C(=O)OCCCOC(=O)Cc1c(C)n(C(=O)c3ccc(Cl)cc3)c3ccc(OC)cc13)c(C)n2C(=O)c1ccc(Cl)cc1` [Compound 24] here?
**A.** Its value is no more than 5 h.

**Q.** With `C[C@@H](CN1CC(=O)NC(=O)C1)N1CC(=O)NC(=O)C1` [ICRF-187] as the molecule, how does the “removal of iron from the anthracycline-iron complex, preventing cardiac toxicity” value (cancer patients) read?
**A.** The value was “effective for the removal of iron from the anthracycline-iron complex, therefore preventing the cardiac toxicity”.

**Q.** And the “promotion of hydroxyl radical generation” value [1]?
**A.** The value was “very effective at promoting hydroxyl radical generation”.

**Q.** What does the source list for `COc1ccc2cc([C@H](C)C(=O)O)ccc2c1` [Naproxen, (S)-(+)-methoxy-α-methyl-2-naphthaleneacetic acid, reference compound]?
**A.** reduction of swelling compared to control by day 15 [2, 7]: approximately 70%; length of the lesions (most of the lesions) [3]: less than 2 mm; number of gastric lesions, dose dependence ([3]; 3 h): dose-related number of lesions

**Q.** With `COc1ccc2cc(C(C)C(=O)OCCCOC(=O)C3CCCN3C(=S)SSC(=S)N3CCCC3C(=O)OCCCOC(=O)C(C)c3ccc4cc(OC)ccc4c3)ccc2c1` (stereo not shown) [PDD-Naproxen] as the molecule, how does the “reduction of swelling compared to control by day 15” value [2, 7] read?
**A.** Its value is “approximately 70%”.

**Q.** And the “chronic antiinflammatory effect, overall” value ([2]; oral, equimolar doses, vs naproxen)?
**A.** Its value is “antiinflammatory activity similar to naproxen; also recorded: antiinflammatory effects equal to those of naproxen; also recorded: effectiveness of PDD-Naproxen in the treatment of adjuvant-induced arthritis”.

**Q.** And the “effect on swelling by day 15, lower doses” value ([2]; oral, naproxen 1 mg/kg, PDD-Naproxen (NOX-319) 1.8 mg/kg)?
**A.** The value was “slight effect by day 15”.

**Q.** What about the “reduction of swelling on days 13 through 15, high doses” value ([2]; oral, naproxen 10 mg/kg, PDD-Naproxen (NOX-319) 18 mg/kg) of the same molecule?
**A.** The value was “comparable reduction of swelling”.

**Q.** What about the “naproxen pharmacokinetic profile, overall” value ([4]; oral or IV, vs naproxen itself) of the same molecule?
**A.** The value was “better naproxen pharmacokinetic profiles than naproxen itself”.

**Q.** And the “AUCinf comparison, oral” value ([4]; oral, PDD-Naproxen vs naproxen)?
**A.** The value was “no significant difference”.

**Q.** What about the decomposition by esterase (esterase; 33.3 units esterase in PBS buffer, 37° C. for 30 min, then room temperature overnight) of the same molecule?
**A.** The decomposition by esterase was “decomposed into two compounds”.

**Q.** What about the “reduction in paw swelling” value ([5]; oral 1 h before carrageenan, naproxen 10 mg/kg or PDD-Naproxen 18 mg/kg (equimolar)) of the same molecule?
**A.** The value was “reduced inflammation significantly at 2 and 3 hours, but started to wear off by 5 hours”.

**Q.** And the “acute antiinflammatory activity, overall” value ([5]; oral, carrageenan model)?
**A.** Its value is “orally active in rats, but slightly less effective vs acute inflammation than the parent drug; also recorded: antiinflammatory activity similar to naproxen; also recorded: alleviation of acute inflammation”.

**Q.** What about the “gastric safety / tendency to cause gastric erosions, overall” value ([3]; relative to naproxen) of the same molecule?
**A.** Its value is “has the ability to reduce the number of erosions in the corpus of the stomach; also recorded: tendency to cause gastric erosions is reduced; also recorded: improved gastric safety”.

**Q.** What about the “number of gastric erosions, low dose” value ([3]; PDD-Naproxen 27 mg/kg vs naproxen 15 mg/kg, 6 animals in each group) of the same molecule?
**A.** Its value is “fewer erosions than the low dose of naproxen, but statistical significance was not achieved”.

**Q.** And the “number of gastric lesions, high dose” value ([3]; PDD-Naproxen 54 mg/kg vs naproxen 30 mg/kg, 3 h)?
**A.** The value was “significantly fewer lesions than the high dose naproxen group (ANOVA; p<0.005)”.

**Q.** What about the “length of the lesions (most of the lesions)” value [3] of the same molecule?
**A.** Its value is “less than 2 mm”.

**Q.** And the “number of gastric lesions, dose dependence” value ([3]; 3 h)?
**A.** Its value is “dose-related number of lesions”.

**Q.** With `COc1ccc2cc(CCC(C)=O)ccc2c1` [nabumetone] as the molecule, how does the “gastrointestinal toxicity relative to other NSAIDs on the market” value [6] read?
**A.** The value was “reduced gastrointestinal toxicity”.

**Q.** What about the “selectivity for COX-2” value (COX-2) of the same molecule?
**A.** The value was “marked selectivity for COX-2”.

**Q.** Which “inhibition of nuclear factor kappa B” value (nuclear factor kappa B) does the source give for `S=C(S)N1CCCC1` [pyrrolidine dithiocarbamate] here?
**A.** Its value is “potent inhibitors of nuclear factor kappa B”.
